Laboratory results as given in the supplement of paper PMC11451515.

How the values were obtained:
Details in all cases: 48 h
NOMO1 [1] = experiment: AUC of viability dose-response curve (% viability x log10 dose units); higher = less sensitive
Method in brief: (§1)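 Area under the curve was integrated by trapezoidal rule from a log-logistic fit of normalised viability, with curves exceeding full viability scaled and quality-control failures removed. The fit had four parameters over log10 doses. Viability came from CellTiter-Glo One luminescence, normalised per plate to DMSO and cell-free wells, after leukemia cells adapted to each medium (500 or 1000 cells/well, 1536-well plates) were exposed to library compounds in DMSO for 48 h at 37°C. The 11 threefold doses ran from 47 μM to 0.79 nM.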

P12-Ichikawa [2] = experiment: as above
Method in brief: as §1

SEM cells [3] = experiment: cell viability relative to DMSO control; higher = less cytotoxic
Method in brief: (§2)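 Before seeding, each leukemia line was adapted for at least four passages in each medium. NOMO1 or SEM cells (500 cells/well) and P12-Ichikawa cells (1000 cells/well) went into 1536-well plates at 5 μl, then received library compounds in DMSO by pin dosing across 11 threefold concentrations, 47 μM to 0.79 nM. Readout was CellTiter-Glo One luminescence after 48 h at 37°C, and viability is given as a per-plate percentage of DMSO wells, with cell-free wells as background.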

NOMO1 [4] = experiment: as above
Method in brief: as §2

P12-Ichikawa [5] = experiment: as above
Method in brief: as §2

SEM cells [6] = experiment: AUC of viability dose-response curve (% viability x log10 dose units); higher = less sensitive
Method in brief: as §1

CN(C)CCN1C(=O)c2cccc3cc(N)cc(c23)C1=O
AUC of viability dose-response curve
Details	HPLM + 10% dialyzed FBS	RPMI 5 mM glucose + 10% FBS	RPMI 5 mM glucose + 10% dialyzed FBS
NOMO1 [1]	424	427	435
P12-Ichikawa [2]	437	418	431

cell viability [%]
Details	NOMO1 [4]	P12-Ichikawa [5]	SEM cells [3]
HPLM + 10% dialyzed FBS, 0.000781 µM	116	104	94.4
HPLM + 10% dialyzed FBS, 0.00234 µM	122	113	89.4
HPLM + 10% dialyzed FBS, 0.00702 µM	118	108	110
HPLM + 10% dialyzed FBS, 0.0211 µM	125	109	108
HPLM + 10% dialyzed FBS, 0.0632 µM	118	111	105
HPLM + 10% dialyzed FBS, 0.19 µM	147	114	107
HPLM + 10% dialyzed FBS, 0.569 µM	118	115	108
HPLM + 10% dialyzed FBS, 1.71 µM	123	113	91.1
HPLM + 10% dialyzed FBS, 5.12 µM	93.7	104	51
HPLM + 10% dialyzed FBS, 15.4 µM	72.3	74.8	30.3
HPLM + 10% dialyzed FBS, 46.1 µM	26.7	7.88	3.64
RPMI 5 mM glucose + 10% FBS, 0.000781 µM	93.3	101	70.2
RPMI 5 mM glucose + 10% FBS, 0.00234 µM	108	113	67.3
RPMI 5 mM glucose + 10% FBS, 0.00702 µM	135	107	71.5
RPMI 5 mM glucose + 10% FBS, 0.0211 µM	108	113	72.1
RPMI 5 mM glucose + 10% FBS, 0.0632 µM	121	122	73.8
RPMI 5 mM glucose + 10% FBS, 0.19 µM	121	116	74.1
RPMI 5 mM glucose + 10% FBS, 0.569 µM	132	125	62.6
RPMI 5 mM glucose + 10% FBS, 1.71 µM	102	102	52.4
RPMI 5 mM glucose + 10% FBS, 5.12 µM	105	92.4	32.1
RPMI 5 mM glucose + 10% FBS, 15.4 µM	59.3	54.7	19.3
RPMI 5 mM glucose + 10% FBS, 46.1 µM	13.1	5.84	2.87
RPMI 5 mM glucose + 10% dialyzed FBS, 0.000781 µM	99.2	105	89.5
RPMI 5 mM glucose + 10% dialyzed FBS, 0.00234 µM	110	112	95
RPMI 5 mM glucose + 10% dialyzed FBS, 0.00702 µM	108	108	98.8
RPMI 5 mM glucose + 10% dialyzed FBS, 0.0211 µM	111	102	102
RPMI 5 mM glucose + 10% dialyzed FBS, 0.0632 µM	118	118	112
RPMI 5 mM glucose + 10% dialyzed FBS, 0.19 µM	118	130	99.3
RPMI 5 mM glucose + 10% dialyzed FBS, 0.569 µM	111	120	106
RPMI 5 mM glucose + 10% dialyzed FBS, 1.71 µM	108	101	92
RPMI 5 mM glucose + 10% dialyzed FBS, 5.12 µM	97.3	89.2	60.1
RPMI 5 mM glucose + 10% dialyzed FBS, 15.4 µM	73.6	77.9	34.6
RPMI 5 mM glucose + 10% dialyzed FBS, 46.1 µM	23.9	11.8	3.19

CN(C)C1=C(Br)C=C(C=C1)C\2NC3=C(\C4=C2C(=O)CC(C)(C)C4)C5=CC=CC=C5C=C3 (centres undefined)
AUC of viability dose-response curve
Details	HPLM + 10% dialyzed FBS	RPMI 5 mM glucose + 10% FBS	RPMI 5 mM glucose + 10% dialyzed FBS
P12-Ichikawa [2]	466	447	459
SEM cells [6]	471	465	470

cell viability [%]
Details	NOMO1 [4]	P12-Ichikawa [5]	SEM cells [3]
HPLM + 10% dialyzed FBS, 0.000781 µM	–	116	113
HPLM + 10% dialyzed FBS, 0.00234 µM	–	96.7	119
HPLM + 10% dialyzed FBS, 0.00702 µM	–	118	125
HPLM + 10% dialyzed FBS, 0.0211 µM	–	116	130
HPLM + 10% dialyzed FBS, 0.0632 µM	–	116	131
HPLM + 10% dialyzed FBS, 0.19 µM	–	113	131
HPLM + 10% dialyzed FBS, 0.569 µM	–	106	113
HPLM + 10% dialyzed FBS, 1.71 µM	–	108	120
HPLM + 10% dialyzed FBS, 5.12 µM	–	107	128
HPLM + 10% dialyzed FBS, 15.4 µM	–	103	120
HPLM + 10% dialyzed FBS, 46.1 µM	–	108	97.8
RPMI 5 mM glucose + 10% FBS, 0.000781 µM	103	112	105
RPMI 5 mM glucose + 10% FBS, 0.00234 µM	124	115	115
RPMI 5 mM glucose + 10% FBS, 0.00702 µM	119	116	137
RPMI 5 mM glucose + 10% FBS, 0.0211 µM	113	104	121
RPMI 5 mM glucose + 10% FBS, 0.0632 µM	114	111	132
RPMI 5 mM glucose + 10% FBS, 0.19 µM	103	100	123
RPMI 5 mM glucose + 10% FBS, 0.569 µM	113	109	107
RPMI 5 mM glucose + 10% FBS, 1.71 µM	98	101	131
RPMI 5 mM glucose + 10% FBS, 5.12 µM	110	105	116
RPMI 5 mM glucose + 10% FBS, 15.4 µM	103	102	109
RPMI 5 mM glucose + 10% FBS, 46.1 µM	102	107	100
RPMI 5 mM glucose + 10% dialyzed FBS, 0.000781 µM	75.9	112	93.1
RPMI 5 mM glucose + 10% dialyzed FBS, 0.00234 µM	117	111	112
RPMI 5 mM glucose + 10% dialyzed FBS, 0.00702 µM	158	110	122
RPMI 5 mM glucose + 10% dialyzed FBS, 0.0211 µM	172	113	128
RPMI 5 mM glucose + 10% dialyzed FBS, 0.0632 µM	182	117	127
RPMI 5 mM glucose + 10% dialyzed FBS, 0.19 µM	71.7	109	127
RPMI 5 mM glucose + 10% dialyzed FBS, 0.569 µM	52.3	102	93.1
RPMI 5 mM glucose + 10% dialyzed FBS, 1.71 µM	89.3	111	114
RPMI 5 mM glucose + 10% dialyzed FBS, 5.12 µM	143	101	126
RPMI 5 mM glucose + 10% dialyzed FBS, 15.4 µM	74.4	97	118
RPMI 5 mM glucose + 10% dialyzed FBS, 46.1 µM	94.8	104	85.4

Nc1ncnc2c1nc(Cl)n2[C@@H]1O[C@H](CO)[C@@H](O)[C@H]1O
AUC of viability dose-response curve
Details	HPLM + 10% dialyzed FBS	RPMI 5 mM glucose + 10% FBS	RPMI 5 mM glucose + 10% dialyzed FBS
P12-Ichikawa [2]	454	463	452
SEM cells [6]	412	419	406

cell viability [%]
Details	NOMO1 [4]	P12-Ichikawa [5]	SEM cells [3]
HPLM + 10% dialyzed FBS, 0.000781 µM	–	123	118
HPLM + 10% dialyzed FBS, 0.00234 µM	–	125	128
HPLM + 10% dialyzed FBS, 0.00702 µM	–	125	123
HPLM + 10% dialyzed FBS, 0.0211 µM	–	121	125
HPLM + 10% dialyzed FBS, 0.0632 µM	–	121	119
HPLM + 10% dialyzed FBS, 0.19 µM	–	122	128
HPLM + 10% dialyzed FBS, 0.569 µM	–	126	115
HPLM + 10% dialyzed FBS, 1.71 µM	–	125	128
HPLM + 10% dialyzed FBS, 5.12 µM	–	118	97.3
HPLM + 10% dialyzed FBS, 15.4 µM	–	103	41.6
HPLM + 10% dialyzed FBS, 46.1 µM	–	58.7	7.3
RPMI 5 mM glucose + 10% FBS, 0.000781 µM	116	–	120
RPMI 5 mM glucose + 10% FBS, 0.00234 µM	123	–	130
RPMI 5 mM glucose + 10% FBS, 0.00702 µM	110	–	123
RPMI 5 mM glucose + 10% FBS, 0.0211 µM	120	–	135
RPMI 5 mM glucose + 10% FBS, 0.0632 µM	120	–	136
RPMI 5 mM glucose + 10% FBS, 0.19 µM	113	–	135
RPMI 5 mM glucose + 10% FBS, 0.569 µM	106	–	119
RPMI 5 mM glucose + 10% FBS, 1.71 µM	110	–	130
RPMI 5 mM glucose + 10% FBS, 5.12 µM	118	–	109
RPMI 5 mM glucose + 10% FBS, 15.4 µM	108	–	55
RPMI 5 mM glucose + 10% FBS, 46.1 µM	14.5	–	8.37
